# Experimental data published in paper PMC8267671, “Midazolam’s Effects on Delayed-Rectifier K^+ Current and Intermediate-Conductance Ca^2+-Activated K^+ Channel in Jurkat T-lymphocytes” (International Journal of Molecular Sciences, 2021).
# How the values were obtained:
# Format in all cases: cell-based
# IKCa channel (KCa3.1) [1] = target: T1, IKCa channel (KCa3.1) (Homo sapiens, UniProt O15554); assay: cell-attached single-channel recording; […] DCEBIO raised open probability in presence of MDZ
# T1 construct: gene KCNN4; native channel in Jurkat T-lymphocytes
# IKCa channel (KCa3.1) [2] = target: T1, IKCa channel (KCa3.1); assay: cell-attached single-channel recording; open probability decreased at […]; settings: read-out: % decrease of open probability at 30 μM
# [3] = target: T2, KV1.3 (delayed-rectifier K+ channel, IK(DR)) (Homo sapiens, UniProt P22001); assay: whole-cell patch clamp of native IK(DR), concentration-response (kinetic KD […])
# T2 construct: gene KCNA3; native channel in Jurkat T-lymphocytes
# T2 sequence (P22001 whole entry): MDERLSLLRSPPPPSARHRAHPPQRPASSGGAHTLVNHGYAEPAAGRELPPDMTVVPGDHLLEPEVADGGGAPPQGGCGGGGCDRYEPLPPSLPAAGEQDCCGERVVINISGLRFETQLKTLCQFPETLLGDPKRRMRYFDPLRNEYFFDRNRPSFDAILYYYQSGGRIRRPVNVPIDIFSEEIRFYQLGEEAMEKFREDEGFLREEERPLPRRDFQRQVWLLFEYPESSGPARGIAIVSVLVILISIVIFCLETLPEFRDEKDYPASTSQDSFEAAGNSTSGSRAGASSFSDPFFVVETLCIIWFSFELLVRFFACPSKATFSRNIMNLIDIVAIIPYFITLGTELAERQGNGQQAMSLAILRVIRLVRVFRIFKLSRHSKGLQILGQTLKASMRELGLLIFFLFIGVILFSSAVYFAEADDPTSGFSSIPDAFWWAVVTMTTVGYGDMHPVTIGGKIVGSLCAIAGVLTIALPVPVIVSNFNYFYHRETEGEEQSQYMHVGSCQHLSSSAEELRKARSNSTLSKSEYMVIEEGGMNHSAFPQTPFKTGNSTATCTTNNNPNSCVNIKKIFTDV
# T1 sequence (O15554 whole entry): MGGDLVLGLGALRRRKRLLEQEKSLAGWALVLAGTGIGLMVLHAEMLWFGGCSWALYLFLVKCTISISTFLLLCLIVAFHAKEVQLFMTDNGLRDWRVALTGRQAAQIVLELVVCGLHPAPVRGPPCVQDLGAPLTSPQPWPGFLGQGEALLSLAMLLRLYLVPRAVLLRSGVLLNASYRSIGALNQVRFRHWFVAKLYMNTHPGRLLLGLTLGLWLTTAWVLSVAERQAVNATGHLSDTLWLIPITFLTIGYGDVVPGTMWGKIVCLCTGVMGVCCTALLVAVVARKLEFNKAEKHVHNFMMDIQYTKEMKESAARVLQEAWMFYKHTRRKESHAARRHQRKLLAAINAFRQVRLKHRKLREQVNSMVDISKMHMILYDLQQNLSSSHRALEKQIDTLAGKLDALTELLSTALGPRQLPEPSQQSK
SMILES,cell-attached single-channel recording; 3 μM DCEBIO raised open probability in p (IKCa channel (KCa3.1) [1]),inhibition at 30 µM (IKCa channel (KCa3.1) [2]) [%],IC50 [3] [µM]
"CCn1c(=O)[nH]c2cc(Cl)c(Cl)cc21 [DCEBIO, 5,6-dichloro-1-ethyl-1,3-dihydro-2H-benzimidazol-2-one]",0.121 ± 0.006 open probability (with 3 µM DCEBIO plus 30 µM MDZ),–,–
"Cc1ncc2n1-c1ccc(Cl)cc1C(c1ccccc1F)=NC2 [MDZ, 8-chloro-6-(2-fluorophenyl)-1-methyl-4H-imidazo [1,5-a][1,4] benzodiazepine]",–,85.7 ± 2.5,5.87
